# ChEMBL document CHEMBL1201862, “PubChem BioAssay data set” (2004)
#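 Grown in 96-well plates, cells were treated for 48 hours with each compound at five concentrations. Insufficient inhibition: endpoint recorded as highest concentration tested. GI50 marks 50% less growth.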 The source made the active and inactive calls. No stated cut-off is given here; in the data, active = GI50 up to about 1.1 µM and inactive = higher.
# What was measured:
# Assay in all cases: DTP human tumour cell line panel, 48 h
# ACHN = tested on: ACHN
# CCRF-CEM = tested on: CCRF-CEM
# HL-60 = tested on: HL-60
# M19-MEL = tested on: M19-MEL
# SF-539 = tested on: SF-539
# TK-10 = tested on: TK-10
# KM12 = tested on: KM12
# DMS-273 = tested on: DMS-273
# SNB-78 = tested on: SNB-78
# DMS-114 = tested on: DMS-114
# HOP-18 = tested on: HOP-18
# HCC 2998 = tested on: HCC 2998
# HOP-62 = tested on: HOP-62
# T47D = tested on: T47D
# MDA-N = tested on: MDA-N
# MDA-MB-435 = tested on: MDA-MB-435
# PC-3 = tested on: PC-3
# BT-549 = tested on: BT-549
# IGROV-1 = tested on: IGROV-1
# KM-20L2 = tested on: KM-20L2
Compound,GI50 (ACHN),GI50 (CCRF-CEM),GI50 (HL-60),GI50 (M19-MEL),GI50 (SF-539),GI50 (TK-10),GI50 (KM12),GI50 (DMS-273),GI50 (SNB-78),GI50 (DMS-114),GI50 (HOP-18),GI50 (HCC 2998),GI50 (HOP-62),GI50 (T47D),GI50 (MDA-N),GI50 (MDA-MB-435),GI50 (PC-3),GI50 (BT-549),GI50 (IGROV-1),GI50 (KM-20L2)
O=C1NP23(OCCO2)Oc2ccccc2C3(C(F)(F)F)O1 (stereo not given),> 100 µM (inactive),> 100 µM (inactive),> 100 µM (inactive),> 100 µM (inactive),> 100 µM (inactive),> 100 µM (inactive),> 100 µM (inactive),> 100 µM (inactive),> 100 µM (inactive),> 100 µM (inactive),> 100 µM (inactive),,,,,,,,,
Cc1nc(O)nc(N/N=C/c2ccc(Cl)cc2)c1C(=O)NC(C)(CO)CO,> 100 µM (inactive),> 100 µM (inactive),> 100 µM (inactive),,,> 100 µM (inactive),> 100 µM (inactive),,,,,> 100 µM (inactive),> 100 µM (inactive),60.7 µM (inactive),> 100 µM (inactive),> 100 µM (inactive),> 100 µM (inactive),> 100 µM (inactive),> 100 µM (inactive),
COC1OC2COC(c3ccccc3)OC2C(O)C1OC(=S)c1ccccc1 (stereo not given),24.3 µM (inactive),19.9 µM (inactive),,,35.2 µM (inactive),62.5 µM (inactive),,,,,,,30.8 µM (inactive),14.9 µM (inactive),27.3 µM (inactive),1.31 µM (inactive),18.3 µM (inactive),53.1 µM (inactive),32.4 µM (inactive),
N#CC(OC1OC(COC2OC(CO)C(O)C(O)C2O)C(O)C(O)C1O)c1ccccc1 (stereo not given),,> 225 µM (inactive),> 225 µM (inactive),> 225 µM (inactive),> 225 µM (inactive),,> 225 µM (inactive),> 225 µM (inactive),> 225 µM (inactive),> 225 µM (inactive),> 225 µM (inactive),> 225 µM (inactive),> 225 µM (inactive),,,,,,> 225 µM (inactive),> 225 µM (inactive)
COC(=O)[C@H]1C=NN[C@@H]1C(=O)N1[C@H]2CC3CC[C@@]2(CS1(=O)=O)C3(C)C,> 100 µM (inactive),> 100 µM (inactive),> 100 µM (inactive),,> 100 µM (inactive),> 100 µM (inactive),> 100 µM (inactive),,,,,> 100 µM (inactive),> 100 µM (inactive),,,> 100 µM (inactive),> 100 µM (inactive),> 100 µM (inactive),> 100 µM (inactive),
CCOC(=O)/C=C/CC(C)(C)COC(C)=O,6.75 µM (inactive),> 10 µM (inactive),> 10 µM (inactive),,,> 10 µM (inactive),0.811 µM (active),,,,,> 10 µM (inactive),,> 10 µM (inactive),7.48 µM (inactive),> 10 µM (inactive),> 10 µM (inactive),,,
CSCC[C@@H](NC(=O)[C@H](CC(C)C)NC(=O)C(Cc1cnc[nH]1)NC(=O)CNC(=O)[C@@H](NC(=O)[C@H](C)NC(=O)[C@H](Cc1c[nH]c2ccccc12)NC(=O)[C@H](CCC(N)=O)NC(=O)[C@@H](N)CC(N)=O)C(C)C)C(N)=O (stereo not given in full),,> 100 µM (inactive),> 100 µM (inactive),> 100 µM (inactive),> 100 µM (inactive),,> 100 µM (inactive),> 100 µM (inactive),> 100 µM (inactive),> 100 µM (inactive),> 100 µM (inactive),> 100 µM (inactive),> 100 µM (inactive),,,,,,> 100 µM (inactive),> 100 µM (inactive)
O=C(OC1C#CCSCC#C/C=C\1)c1ccc2c(c1)C(=O)c1ccccc1C2=O (stereo not given),55 µM (inactive),> 100 µM (inactive),> 100 µM (inactive),,15.5 µM (inactive),27.9 µM (inactive),> 100 µM (inactive),,,,,> 100 µM (inactive),16.5 µM (inactive),> 100 µM (inactive),> 100 µM (inactive),> 100 µM (inactive),> 100 µM (inactive),22.6 µM (inactive),34.8 µM (inactive),
C=C1CC(OC)(C(O)C(=O)N[C@H]2OCO[C@H]3C2O[C@H](C[C@H](O)COC)C(C)(C)C3OC)O[C@H](C)[C@@H]1C (stereo not given in full),,< 0.00773 µM (active),< 0.00773 µM (active),< 0.00773 µM (active),< 0.00773 µM (active),,< 0.00773 µM (active),< 0.00773 µM (active),< 0.00773 µM (active),< 0.00773 µM (active),< 0.00773 µM (active),< 0.00773 µM (active),< 0.00773 µM (active),,,,,,< 0.00773 µM (active),< 0.00773 µM (active)
